According to patent publication US9290487B2, “Pharmaceutical composition for treating diabetes” (Ajinomoto Co., Inc., priority 2011, dated 2016):

What follows are compounds tested against human GYS1 (glycogen synthase) (Homo sapiens (Human), UniProt P13807) (assay: Measurement of glycogen synthase activity (coupled pyruvate kinase/lactate dehydrogenase assay, absorbance at 340 nm)). Conditions: concentration inducing relative activity of 50% (100% = Ex. 1 of WO/2011/058154 at 10 μM); incubation at 37° C. for 20 minutes (Examples 11 to 75).
Format: biochemical
Protocol: A human GYS1 expression plasmid (pCDNA3.1(+)-hGYS1) was constructed by the following method. Using a human skeletal muscle cDNA of Human MTC Panel I (Takara Bio Inc., 636742) as a template, a human GYS1 gene was amplified by a PCR method using cloning primers (Forward Primer: ATGCCTTTAAACCGCAC (SEQ ID NO: 1), Reverse Primer: TTAGTTACGCTCCTCGC (SEQ ID NO: 2)). Using the amplified human GYS1 sequence as a template, a restriction enzyme sequence was added by a PCR method using sub-cloning primers (Forward Primer: […] (SEQ ID NO: 3), Reverse Primer: […] (SEQ ID NO: 4)). Then, the human GYS1 gene was introduced between a Xho I site and a Xba I site of pCDNA3.1(+) (Invitrogen Corporation, V790-20).
Glycogen synthase was prepared by the following method according to the published article (THE JOURNAL OF BIOLOGICAL CHEMISTRY Vol. 269, No. 41, 25534-25542, 1994). Human kidney-derived HEK293T cells were seeded in a dish (Thermo Fisher Scientific Inc., 168381) using a 10% FBS-containing DMEM (Nacalai Tesque, Inc., 0845874) medium, and cultured overnight. Then, using Lipofectamine LTX (Invitrogen Corporation, 15338-100), the human GYS1 expression vector was transfected according to the attached manual. After culturing under conditions of 37° C. and 5% CO2 for 2 days, the resultant was dissolved in a lysis buffer (50 mM Tris-HCl (pH 8.0), 10 mM EDTA, 2 mM EGTA, 100 mM NaF, 1 mM PMSF, 1 mM DTT, 1× Complete (Roche Diagnostics K. K., 1873580)), homogenized, and then centrifuged at 16000×g at 4° C. for 15 minutes. To the precipitated fraction, a lysis buffer was added. Re-dissolved fractions were used as glycogen synthase for evaluation.
The glycogen synthase activity was measured by the following method. To a polystyrene 96-well plate, a solution containing 30 mM glycylglycine (pH 7.3), 40 mM KCl, 20 mM MgCl2, 9.2% DMSO containing one of the test compounds at various concentrations, and 10 mM glucose-6-phosphate (Sigma-Aldrich Corporation, G7879) was added by 12 μL/well.
Next, a substrate solution containing 30 mM glycylglycine (pH 7.3), 4.3 mg/mL of glycogen (Sigma-Aldrich Corporation, G8876), 21.6 mM UDP-glucose (Sigma-Aldrich Corporation, U4625), 21.6 mM phosphoenolpyruvic acid (Sigma-Aldrich Corporation, P0564), and 4.05 mM NADH (Sigma-Aldrich Corporation, N8129) was added by 18 μL/well.
Further, an enzyme solution containing 50 mM Tris-HCl (pH 8.0), 27 mM DTT (Nacalai Tesque, Inc., 14128-04), 0.2 mg/mL of bovine serum albumin, 0.17 mg/mL of the glycogen synthase, 1.5 μL of a pyruvate kinase/lactate dehydrogenase solution (Sigma-Aldrich Corporation, P0294) was added by 18 μL/well to prepare a reaction solution. After the reaction solution was incubated (at 30° C. for 25 minutes for Examples 1 to 10, at 37° C. for 20 minutes for Examples 11 to 75), the absorbance at 340 nm was measured using Benchmark Plus (Bio-Rad Laboratories, Inc.).
The activities of the test compounds were calculated by the following method. The change in the absorbance (ΔA340) was calculated by subtracting the absorbance at 340 nm of the reaction solution containing the compound and DMSO from the absorbance at 340 nm of a reaction solution not containing the compound but containing only DMSO. The ΔA340 of the reaction solution containing the compound of Example 1 in WO/2011/058154 at the final concentration of 10 μM was taken as 100% to calculate the relative activity (%) of the test compounds at various concentrations. EC50 representing the concentration of the compound which induces an increase in the relative activity to 50% was calculated using XLfit (idbs).

human GYS1 (glycogen synthase), sequence (P13807 whole entry): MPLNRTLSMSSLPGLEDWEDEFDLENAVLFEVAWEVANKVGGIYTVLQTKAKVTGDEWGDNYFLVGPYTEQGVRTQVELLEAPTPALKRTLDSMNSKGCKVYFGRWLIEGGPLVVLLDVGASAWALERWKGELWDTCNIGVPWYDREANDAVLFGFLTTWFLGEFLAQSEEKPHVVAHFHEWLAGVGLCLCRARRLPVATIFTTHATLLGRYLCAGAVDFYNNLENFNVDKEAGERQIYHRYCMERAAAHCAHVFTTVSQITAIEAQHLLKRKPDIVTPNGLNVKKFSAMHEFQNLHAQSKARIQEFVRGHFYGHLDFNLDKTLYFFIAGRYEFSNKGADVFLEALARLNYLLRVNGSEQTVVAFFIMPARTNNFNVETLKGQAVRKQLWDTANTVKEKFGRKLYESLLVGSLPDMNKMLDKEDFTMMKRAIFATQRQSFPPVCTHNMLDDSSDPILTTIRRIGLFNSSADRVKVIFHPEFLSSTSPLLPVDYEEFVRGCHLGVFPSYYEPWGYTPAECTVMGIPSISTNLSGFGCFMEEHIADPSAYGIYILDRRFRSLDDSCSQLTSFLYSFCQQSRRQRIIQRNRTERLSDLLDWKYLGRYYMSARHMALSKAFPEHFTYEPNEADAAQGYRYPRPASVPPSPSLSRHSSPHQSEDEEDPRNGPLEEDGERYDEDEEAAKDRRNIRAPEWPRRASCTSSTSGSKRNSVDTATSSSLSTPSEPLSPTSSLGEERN

Row | EC50 [nM] | SMILES
1 | 230 | O=C(O)[C@@H]1CCCN1C(=O)c1cccc(COc2ccc(-c3ccc(F)c4[nH]ccc34)cc2)c1 [compound of Ex. 29, 1-(3-{[4-(7-fluoro-1H-indol-4-yl)phenoxy]methyl}benzoyl)-L-proline]
2 | 140 | O=C(O)[C@@H]1CCCN1C(=O)c1cccc(COc2ccc(-c3cc(F)c(F)c4occc34)cc2)c1 [compound of Ex. 30, 1-(3-{[4-(6,7-difluoro-1-benzofuran-4-yl)phenoxy]methyl}benzoyl)-L-proline]
3 | 100 | O=C(O)[C@@H]1CCCN1C(=O)c1cccc(COc2ccc(-c3cc(F)c(F)c4c3C=CCO4)cc2)c1 [compound of Ex. 31, 1-(3-{[4-(7,8-difluoro-2H-chromen-5-yl)phenoxy]methyl}benzoyl)-L-proline]
4 | 34 | O=C(O)[C@@H]1CCCN1C(=O)c1cccc(COc2ccc(-c3cc(F)c(F)c4[nH]ccc34)cc2)c1 [compound of Ex. 33, 1-(3-{[4-(6,7-difluoro-1H-indol-4-yl)phenoxy]methyl}benzoyl)-L-proline]
5 | 17 | C#CCOc1cc(F)c(F)cc1-c1ccc(OCc2cccc(C(=O)N3CCC[C@H]3C(=O)O)c2)cc1 [compound of Ex. 34, 1-[3-({[4′,5′-difluoro-2′-(prop-2-yn-1-yloxy)biphenyl-4-yl]oxy}methyl)benzoyl]-L-proline]
6 | 15 | N#CCOc1cc(F)c(F)cc1-c1ccc(OCc2cccc(C(=O)N3CCC[C@H]3C(=O)O)c2)cc1 [compound of Ex. 35, 1-[3-({[2′-(cyanomethoxy)-4′,5′-difluorobiphenyl-4-yl]oxy}methyl)benzoyl]-L-proline]
7 | 110 | C=CCOc1cc(F)c(F)cc1-c1ccc(OCc2cccc(C(=O)N3CCC[C@H]3C(=O)O)c2)cc1 [compound of Ex. 36, 1-[3-({[2′-(allyloxy)-4′,5′-difluorobiphenyl-4-yl]oxy}methyl)benzoyl]-L-proline]
8 | 10 | [2H]C([2H])([2H])Oc1cc(F)c(F)cc1-c1ccc(OCc2cccc(C(=O)N3CCC[C@H]3C(=O)O)c2)cc1 [compound of Ex. 37, 1-(3-{[(4′,5′-difluoro-2′-d3 methoxybiphenyl-4-yl)oxy]methyl}benzoyl)-L-proline]
9 | 29 | CSc1cc(F)c(F)cc1-c1ccc(OCc2cccc(C(=O)N3CCC[C@H]3C(=O)O)c2)cc1 [compound of Ex. 38, 1-[3-({[4′,5′-difluoro-2′-(methylthio)biphenyl-4-yl]oxy}methyl)benzoyl]-L-proline]
10 | 42 | O=C(O)[C@@H]1CCCN1C(=O)c1cccc(COc2ccc(-c3cc(F)c(F)c4ccsc34)cc2)c1 [compound of Ex. 39, 1-(3-{[4-(4,5-difluoro-1-benzothien-7-yl)phenoxy]methyl}benzoyl)-L-proline]
11 | 100 | Cc1cc2c(-c3ccc(OCc4cccc(C(=O)N5CCC[C@H]5C(=O)O)c4)cc3)cc(F)c(F)c2[nH]1 [compound of Ex. 41, 1-(3-{[4-(6,7-difluoro-2-methyl-1H-indol-4-yl)phenoxy]methyl}benzoyl)-L-proline]
12 | 800 | COCc1coc2c(-c3ccc(OCc4cccc(C(=O)N5CCC[C@H]5C(=O)O)c4)cc3)cc(F)c(F)c12 [compound of Ex. 45, 1-[3-({4-[4,5-difluoro-3-(methoxymethyl)-1-benzofuran-7-yl]phenoxy}methyl)benzoyl]-L-proline]
13 | 150 | N#CCc1coc2c(-c3ccc(OCc4cccc(C(=O)N5CCC[C@H]5C(=O)O)c4)cc3)cc(F)c(F)c12 [compound of Ex. 46, 1-[3-({4-[3-(cyanomethyl)-4,5-difluoro-1-benzofuran-7-yl]phenoxy}methyl)benzoyl]-L-proline]
14 | 150 | C#CCOc1cc(-c2ccc(OCc3cccc(C(=O)N4CCC[C@H]4C(=O)O)c3)cc2)cc(F)c1F [compound of Ex. 47, 1-[3-({[3′,4′-difluoro-5′-(prop-2-yn-1-yloxy)biphenyl-4-yl]oxy}methyl)benzoyl]-L-proline]
15 | 120 | N#CCOc1cc(-c2ccc(OCc3cccc(C(=O)N4CCC[C@H]4C(=O)O)c3)cc2)cc(F)c1F [compound of Ex. 48, 1-[3-({[3′-(cyanomethoxy)-4′,5′-difluorobiphenyl-4-yl]oxy}methyl)benzoyl]-L-proline]
16 | 260 | N#Cc1cc2c(F)c(F)cc(-c3ccc(OCc4cccc(C(=O)N5CCC[C@H]5C(=O)O)c4)cc3)c2o1 [compound of Ex. 54]
17 | 85 | Cc1csc2c(-c3ccc(OCc4cccc(C(=O)N5CCC[C@H]5C(=O)O)c4)cc3)cc(F)c(F)c12 [compound of Ex. 55, 1-(3-{[4-(4,5-difluoro-3-methyl-1-benzothien-7-yl)phenoxy]methyl}benzoyl)-L-proline]
18 | 140 | NC(=NO)c1cc2c(F)c(F)cc(-c3ccc(OCc4cccc(C(=O)N5CCC[C@H]5C(=O)O)c4)cc3)c2o1 [compound of Ex. 57, 1-{3-[(4-{2-[amino(hydroxyimino)methyl]4,5-difluoro-1-benzofuran-7-yl}phenoxy)methyl]benzoyl}-L-proline]
19 | 150 | O=C(O)[C@@H]1CCN1C(=O)c1cccc(COc2ccc(-c3cc(F)c(F)c4ccoc34)cc2)c1 [compound of Ex. 59, (2S)-1-(3-{[4-(4,5-difluoro-1-benzofuran-7-yl)phenoxy]methyl}benzoyl)azetidine-2-carboxylic acid]
20 | 160 | O=C(O)[C@@H]1CCCN1C(=O)c1cccc(COc2ccc(-c3cc(F)c(F)c4ccoc34)cc2F)c1 [compound of Ex. 60, 1-(3-{[4-(4,5-difluoro-1-benzofuran-7-yl)-2-fluorophenoxy]methyl}benzoyl)-L-proline]
21 | 270 | Cc1cc2c(F)c(F)cc(-c3ccc(OCc4cccc(C(=O)N5CCC[C@H]5C(=O)O)c4)cc3)c2s1 [compound of Ex. 62, 1-(3-{[4-(4,5-difluoro-2-methyl-1-benzothien-7-yl)phenoxy]methyl}benzoyl)-L-proline]
22 | 220 | C[C@@H](C(=O)O)N(C)C(=O)c1cccc(COc2ccc(-c3cc(F)c(F)c4ccoc34)cc2)c1 [compound of Ex. 63, N-(3-{[4-(4,5-difluoro-1-benzofuran-7-yl)phenoxy]methyl}benzoyl)-N-methyl-L-alanine]
23 | 140 | O=C(O)[C@@H]1C=CCN1C(=O)c1cccc(COc2ccc(-c3cc(F)c(F)c4ccoc34)cc2)c1 [compound of Ex. 64, (2S)-1-(3-{[4-(4,5-difluoro-1-benzofuran-7-yl)phenoxy]methyl}benzoyl)-2,5-dihydro-1H-pyrrole-2-carboxylic acid]
24 | 590 | N#Cc1cc2c(F)c(F)cc(-c3ccc(OCc4cccc(C(=O)N5CCC[C@H]5C(=O)O)c4)cc3)c2s1 [compound of Ex. 67, 1-(3-{[4-(2-cyano-4,5-difluoro-1-benzothien-7-yl)phenoxy]methyl}benzoyl)-L-proline]
25 | 340 | O=C(O)[C@@H]1CSCN1C(=O)c1cccc(COc2ccc(-c3cc(F)c(F)c4ccoc34)cc2)c1 [compound of Ex. 68, (4R)-3-(3-{[4-(4,5-difluoro-1-benzofuran-7-yl)phenoxy]methyl}benzoyl)-1,3-thiazolidine-4-carboxylic acid]
26 | 65 | COCc1cc2c(F)c(F)cc(-c3ccc(OCc4cccc(C(=O)N5CCC[C@H]5C(=O)O)c4)cc3)c2o1 [compound of Ex. 73, 1-[3-({4-[4,5-difluoro-2-(methoxymethyl)-1-benzofuran-7-yl]phenoxy}methyl)benzoyl]-L-proline]
